Assay results taken from patent US5286715A, “New adamantyl comprising tripeptides, derivatives and hydrochlorides thereof, their preparation and use” (priority 1989, dated 1994).
Values joined by “and” are separate entries in the source; they are usually repeats but may differ in a detail not shown here. Equal values may be shown once. Read-outs that look alike come from different tables or passages of the source.

Key:
[1] = test system: Influenza A virus H1N1; assay type: cell-based; conditions: MDCK cells 10^4 cells/100 μL/well
[2] = test system: Influenza A virus H3N2; assay type: cell-based; conditions: MDCK cells 10^4 cells/100 μL/well
[3] = test system: MCa mammary carcinoma; assay: Intramuscular tumor growth in mice bearing MCa mammary carcinoma; assay type: in vivo, CBA mice; conditions: for Primary tumor weight % Inhibition / Primary tumor weight mg ± S.E.: 24 hrs after last treatment, hydrochloride
Procedure: The antitumor activity was examined in CBA mice bearing the MCa mammary carcinoma tumor or in C57BL mice inoculated with B-16 melanoma. The doses tested, 5 and 25 mg/kg bodyweight/day, given i.v. on days 1, 5, 9, 13 after tumor implantation were devoid of severe toxicity.
(§1) ^a Groups of 7 CBA mice, inoculated i.m. into the calf of the left
(§2) hind leg with 10^6 viable MCa mammary carcinoma cells on day 0, were
(§3) given i.v. the test compounds (saline for controls) on days 1, 5, 9, 13.
^b Evaluated 24 hrs after the last treatment. The tumor growth was
estimated by calliper measurements taking tumor density equal to 1 and
using the formula: tumor weight = (π/6)xA^2 xB, with A and B as tw
perpendicular axes (A<B).

[4] = test system: MCa mammary carcinoma; assay: Lung metastases development in mice bearing MCa mammary carcinoma; assay type: in vivo, CBA mice; conditions: for Animals without macroscopically detectable lung metastases % / lung metastases % Inhibition / lung metastases, mean: 25 mg/kg i.v. days 1, 5, 9, 13, evaluated day 23, hydrochloride
Procedure: | ^a Groups of 7 CBA mice, inoculated i.m. into the calf of the left | hind leg with 10^6 viable MCa mammary carcinoma cells on day 0, were | given i.v. 25 mg/kg of each test compound (saline for controls) on days 1 | 5, 9, 13. Lung metastases evaluation was performed on the freshly removed | lung tissue immediately after killing on day 23 by using a low power | stereo microscope. | ^b Animals without macroscopically detectable lung metastatic nodules

[5] = test system: MCa mammary carcinoma; assay: Survival time of mice bearing MCa mammary carcinoma; assay type: in vivo, CBA mice; conditions: hydrochloride
Procedure: as §1, §2, §3
^b Survival time was recorded as the number of days of survival of
each mouse from the tumor implantation.

[6] = test system: melanoma B-16; assay: Lung metastases development in mice bearing melanoma B-16; assay type: in vivo, C57BL/6 mice; conditions: for Animals without metastases % / Number of metastatic nodules/mouse % inhibition / Number of metastatic nodules/mouse mean (min-max): counted day 30; for reduction of lung metastases to a fraction of the number in untreated control groups: i.v. administration on day 4
Procedure: ^a Groups of 8 C57BL/6 mice (5-6 months old), inoculated i.v. with
10^5 melanoma B16 cells on day 0, were given i.v. 25 mg/kg of each
test compound (saline for controls) on days 4 or 7.
Macroscopically detectable lung metastases were counted on day 30.

[7] = test system: anti-HgG antibodies; assay: Immunoadjuvant activity in rabbits immunized with human gamma globulin (HgG); assay type: in vivo, New Zealand rabbits; conditions: 0.3 mg i.v. in PBS three days after immunogen; versus controls immunized with HgG in incomplete Freund's adjuvant
Procedure: The immunostimulating property of Isomer 1 and Isomer 2 of D,L(2-adamantyl-)-glycyl-L-alanyl-D-isoglutamine was tested in rabbits immunized with human gamma globulin (HgG).
New Zealand rabbits (five per group) were immunized s.c. with 0.5 mg of HgG in incomplete Freund's adjuvant. Isomer 1/Isomer 2 (0.3 mg) was administered i.v. in phosphate buffered saline (PBS) three days after immunogen. The formation of anti-HgG antibodies was followed by a solid phase radioimmunoassay method to provide a quantitative measure of anti-HgG antibodies in rabbit sera. Serum antibody content (mg/mL) was determined by parallel line bioassay method, using >>SIGMA<< antihuman IgG (whole molecule) as a standard.

[8] = 25 mg/kg i.v. on day +4, hydrochloride
[9] = 25 mg/kg i.v. on day +7, hydrochloride

Compound | MIC (minimum inhibitory concentration) ([1]; hydrochloride) [µg] | MIC (minimum inhibitory concentration) ([2]; hydrochloride) [µg] | Primary tumor weight % Inhibition ([3]; 5 mg/kg i.v. days 1, 5, 9, 13) [%] | Primary tumor weight mg ± S.E. ([3]; 5 mg/kg i.v. days 1, 5, 9, 13) [mg] | Primary tumor weight % Inhibition ([3]; 25 mg/kg i.v. days 1, 5, 9, 13) [%] | Primary tumor weight mg ± S.E. ([3]; 25 mg/kg i.v. days 1, 5, 9, 13) [mg] | Animals without macroscopically detectable lung metastases % [4] | lung metastases % Inhibition [4] [%] | lung metastases, mean [4] | Survival time % Increase ([5]; 5 mg/kg i.v. days 1, 5, 9, 13) | Survival time (days) mean (min-max) ([5]; 5 mg/kg i.v. days 1, 5, 9, 13) | Survival time % Increase ([5]; 25 mg/kg i.v. days 1, 5, 9, 13) | Survival time (days) mean (min-max) ([5]; 25 mg/kg i.v. days 1, 5, 9, 13) | Animals without metastases % ([6]; 25 mg/kg i.v. on day +4) [%] | Number of metastatic nodules/mouse % inhibition [6, 8] [%] | Number of metastatic nodules/mouse mean (min-max) [6, 8] | Animals without metastases % [6, 9] [%] | Number of metastatic nodules/mouse % inhibition [6, 9] [%] | Number of metastatic nodules/mouse mean (min-max) [6, 9] | reduction of lung metastases to a fraction of the number in untreated control groups [6] | further results
NC12CC3CC(CC(C3)C1)C2 [Symmetrel, amantadine, reference compound] |  |  |  |  |  |  |  |  |  |  |  |  |  |  |  |  |  |  |  |  | MIC (minimum inhibitory concentration) [1]: < 12.5 µg; MIC (minimum inhibitory concentration) [2]: < 12.5 µg
C[C@H](NC(=O)C(N)C1C2CC3CC(C2)CC1C3)C(=O)N[C@H](CCC(=O)O)C(N)=O.Cl (single isomer, unassigned; isomer 1) [Isomer 1, D,L-(2-Adamantyl-)-glycyl-L-alanyl-D-isoglutamine hydrochloride] | 12.5 | > 200 | -28 | 1387 ± 224 | -21 | 1522 ± 182 | 14.3% | -43 | 2.71 | +10% | 24.6 (18-31) days | +13% | 25.4 (15-40) days | 37 | -68 | 1.0 (0-2) | 37 | -76 | 0.64 (0-1) | 1/3 | 
C[C@H](NC(=O)C(N)C1C2CC3CC(C2)CC1C3)C(=O)N[C@H](CCC(=O)O)C(N)=O.Cl (single isomer, unassigned; isomer 2) [Isomer 2, D,L-(2-Adamantyl-)-glycyl-L-alanyl-D-isoglutamine hydrochloride] | 100 | 50 | -44 | 1076 ± 132 | -19 | 1559 ± 177 | 57.1% and 57% | -76 | 1.14 | +22% | 27.4 (18-40) days | +32% | 29.7 (18-40) days | 37 | -69 | 0.97 (0-2) | 28 | -48 | 1.38 (0-4) | 1/3 | reduction of the volume of the intramuscular tumor ([3]; 5 mg/kg bodyweight/day i.v., 24 hours after the last day of treatment): 44%; spontaneous dissemination of tumor to the lungs, % of controls ([4]; 25 mg/kg bodyweight/day i.v.): 24 % of controls; Antibody formation against HgG [7]: significantly enhanced
